Test results taken from ChEMBL document CHEMBL5523718, “Design, synthesis, molecular modeling, in vitro and in vivo biological evaluation of potent anthranilamide derivatives as dual P-glycoprotein and CYP3A4 inhibitors” (Eur J Med Chem, 2024).
pEC50, pIC50: −log10 of the molar value. Values after ≈ are worked out from the molar mass of the structure shown.

Legend:
[1] = Apparent permeability across basolateral to apical side in human Caco-2 cells assessed as drug recovery; assay type: ADME, cell-based; conditions: read-out: Drug recovery
Cytochrome P450 3A4 [2] = biological target: T1, Cytochrome P450 3A4 (Homo sapiens, UniProt P08684); test: Inhibition of CYP3A4 in human liver using luciferin-IPA as substrate microsome preincubated with compound for 10 mins followed by NADPH addition and measured after 5 mins; assay type: ADME, microsomes
T1 sequence (P08684 whole entry): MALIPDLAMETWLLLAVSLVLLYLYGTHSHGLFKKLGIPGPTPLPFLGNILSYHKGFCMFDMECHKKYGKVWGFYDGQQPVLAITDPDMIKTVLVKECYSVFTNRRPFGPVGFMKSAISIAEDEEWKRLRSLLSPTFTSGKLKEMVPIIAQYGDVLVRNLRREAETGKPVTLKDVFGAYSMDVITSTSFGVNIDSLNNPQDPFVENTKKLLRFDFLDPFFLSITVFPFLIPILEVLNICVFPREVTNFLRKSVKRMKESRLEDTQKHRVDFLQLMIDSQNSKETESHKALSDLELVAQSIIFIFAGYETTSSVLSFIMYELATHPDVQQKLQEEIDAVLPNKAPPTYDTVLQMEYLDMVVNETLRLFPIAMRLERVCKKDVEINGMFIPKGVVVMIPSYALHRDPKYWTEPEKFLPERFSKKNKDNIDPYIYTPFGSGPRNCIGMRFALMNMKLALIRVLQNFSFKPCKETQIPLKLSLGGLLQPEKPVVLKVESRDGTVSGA

Cytochrome P450 3A4 [3] = biological target: T1, Cytochrome P450 3A4; test: Inhibition of CYP3A4 in human Hepatocyte using Luciferin-IPA as substrate; assay type: ADME, cell-based
[4] = biological target: T2, ATP-dependent translocase ABCB1 (Homo sapiens, UniProt P08183); test: Inhibition of P-gp in human MES-SA/Dx5 cells; assay type: cell-based
T2 sequence (P08183 whole entry): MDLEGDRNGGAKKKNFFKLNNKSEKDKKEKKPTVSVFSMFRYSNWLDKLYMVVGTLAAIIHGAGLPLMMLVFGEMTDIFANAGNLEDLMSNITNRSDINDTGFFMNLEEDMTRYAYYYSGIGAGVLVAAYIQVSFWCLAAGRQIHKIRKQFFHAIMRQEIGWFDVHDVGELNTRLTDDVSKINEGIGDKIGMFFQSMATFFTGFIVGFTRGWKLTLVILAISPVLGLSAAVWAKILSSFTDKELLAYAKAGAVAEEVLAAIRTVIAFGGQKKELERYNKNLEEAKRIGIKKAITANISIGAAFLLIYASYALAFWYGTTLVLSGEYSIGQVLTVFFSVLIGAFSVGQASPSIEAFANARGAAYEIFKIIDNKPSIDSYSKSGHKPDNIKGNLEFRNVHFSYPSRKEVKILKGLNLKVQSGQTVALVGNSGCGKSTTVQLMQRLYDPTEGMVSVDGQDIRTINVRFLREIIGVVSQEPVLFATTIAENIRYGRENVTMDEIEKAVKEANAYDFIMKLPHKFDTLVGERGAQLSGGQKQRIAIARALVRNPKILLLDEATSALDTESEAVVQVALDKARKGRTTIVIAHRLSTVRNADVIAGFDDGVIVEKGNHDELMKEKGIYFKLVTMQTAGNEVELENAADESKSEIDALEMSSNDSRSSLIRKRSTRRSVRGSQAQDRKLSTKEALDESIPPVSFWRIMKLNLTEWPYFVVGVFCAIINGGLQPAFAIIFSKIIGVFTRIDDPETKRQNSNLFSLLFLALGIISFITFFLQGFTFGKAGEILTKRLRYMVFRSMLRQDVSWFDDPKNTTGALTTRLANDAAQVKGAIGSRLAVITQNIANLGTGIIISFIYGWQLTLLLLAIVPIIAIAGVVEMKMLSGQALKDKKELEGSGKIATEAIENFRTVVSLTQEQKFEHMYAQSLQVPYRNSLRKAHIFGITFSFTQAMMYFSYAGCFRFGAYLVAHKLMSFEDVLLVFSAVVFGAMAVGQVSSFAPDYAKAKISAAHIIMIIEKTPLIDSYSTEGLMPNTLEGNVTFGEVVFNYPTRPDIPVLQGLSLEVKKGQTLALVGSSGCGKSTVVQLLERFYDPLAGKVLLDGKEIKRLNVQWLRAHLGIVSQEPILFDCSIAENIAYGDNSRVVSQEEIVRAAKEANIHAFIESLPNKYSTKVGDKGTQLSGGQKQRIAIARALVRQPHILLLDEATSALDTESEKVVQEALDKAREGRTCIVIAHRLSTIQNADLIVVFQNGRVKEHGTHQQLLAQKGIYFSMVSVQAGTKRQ

[5] = Apparent permeability across apical to basolateral side in human Caco-2 cells assessed as drug recovery; assay type: ADME, cell-based; conditions: read-out: Drug recovery
MES-SA/Dx5 = test: Cytotoxicity against human MES-SA/Dx5 cells at 1.28 uM incubated for 3 days by MTT assay relative to control; assay type: functional; conditions: time 3 day
[6] = Apparent permeability of compound across apical to basolateral side in human Caco-2 cells; assay type: ADME, cell-based
[7] = Equilibrium solubility of compound in PBS at pH 7.4; assay type: physicochemical; conditions: for solubility: buffer; for solubility thermodynamic: PBS
[8] = Apparent permeability of compound across basolateral to apical side in human Caco-2 cells; assay type: ADME, cell-based
[9] = Efflux ratio of apparent permeability across basolateral to apical side over apical to basolateral side in human Caco-2 cells; assay type: ADME, cell-based
[10] = Metabolic stability in monkey liver microsome assessed as intrinsic clearance; assay type: ADME, Macaca mulatta; conditions: rhesus monkey, microsomes
[11] = MRT in CD-1 mouse at 10 mg/kg, po measured upto 8 hrs by LC-MS/MS analysis; assay type: ADME, organism-based; conditions: in vivo
[12] = biological target: T3, Broad substrate specificity ATP-binding cassette transporter ABCG2 (Homo sapiens, UniProt Q9UNQ0); test: Inhibition of BCRP (unknown origin) ATPase activity
T3 sequence (Q9UNQ0 whole entry): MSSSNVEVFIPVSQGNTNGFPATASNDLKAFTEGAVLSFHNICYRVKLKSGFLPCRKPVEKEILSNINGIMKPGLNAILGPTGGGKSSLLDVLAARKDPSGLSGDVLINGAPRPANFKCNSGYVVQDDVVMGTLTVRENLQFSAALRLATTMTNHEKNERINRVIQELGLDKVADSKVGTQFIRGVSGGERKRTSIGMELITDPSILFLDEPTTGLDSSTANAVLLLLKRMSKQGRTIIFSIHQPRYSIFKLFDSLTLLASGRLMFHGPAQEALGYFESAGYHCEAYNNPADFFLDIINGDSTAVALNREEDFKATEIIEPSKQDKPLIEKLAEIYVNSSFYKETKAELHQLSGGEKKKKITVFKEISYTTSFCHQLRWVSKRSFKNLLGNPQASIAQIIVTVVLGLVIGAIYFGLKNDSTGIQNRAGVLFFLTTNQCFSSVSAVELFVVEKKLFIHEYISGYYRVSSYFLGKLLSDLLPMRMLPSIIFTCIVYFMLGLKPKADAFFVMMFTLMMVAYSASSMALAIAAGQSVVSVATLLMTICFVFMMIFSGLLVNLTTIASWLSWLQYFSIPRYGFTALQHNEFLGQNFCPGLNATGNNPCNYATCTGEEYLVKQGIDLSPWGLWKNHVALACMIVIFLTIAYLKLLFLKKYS

[13] = Half life in CD-1 mouse at 10 mg/kg, po measured upto 8 hrs by LC-MS/MS analysis; assay type: ADME, organism-based; conditions: in vivo
[14] = Metabolic stability in monkey liver microsome assessed as half life; assay type: ADME, Macaca mulatta; conditions: rhesus monkey, liver microsomes
[15] = Metabolic stability in human liver microsome assessed as intrinsic clearance; assay type: ADME; conditions: microsomes
[16] = biological target: T2, ATP-dependent translocase ABCB1; test: Inhibition of P-gp (unknown origin) ATPase activity
[17] = Metabolic stability in mouse liver microsome assessed as intrinsic clearance; assay type: ADME; conditions: microsomes
[18] = biological target: T2, ATP-dependent translocase ABCB1; test: Inhibition of P-gp in human Caco-2 cells in presence of paclitaxel; assay type: cell-based
P-gp (ABCB1) [19] = biological target: T4, P-gp (ABCB1) (Homo sapiens, UniProt P08183); test: Inhibition of P-gp in human Caco-2 cells at 1 uM in presence of paclitaxel relative to control; assay type: cell-based; conditions: Caco-2, probe paclitaxel
T4 sequence (P08183 whole entry): as the sequence (P08183 whole entry) above

[20] = Inhibition of MRP1 (unknown origin) ATPase activity; design: species or system Homo sapiens
P-gp (ABCB1) [21] = biological target: T4, P-gp (ABCB1); test: Inhibition of P-gp in human Caco-2 cells at 5 uM in presence of paclitaxel relative to control; assay type: cell-based; conditions: Caco-2, probe paclitaxel
[22] = Metabolic stability in mouse liver microsome assessed as half life; assay type: ADME; conditions: liver microsomes
[23] = Metabolic stability in human liver microsome assessed as half life; assay type: ADME; conditions: liver microsomes
[24] = biological target: ATP-binding cassette sub-family C member 2 (Homo sapiens, UniProt Q92887); test: Inhibition of MRP2 (unknown origin) ATPase activity
Chain of ATP-binding cassette sub-family C member 2 (Q92887 whole entry): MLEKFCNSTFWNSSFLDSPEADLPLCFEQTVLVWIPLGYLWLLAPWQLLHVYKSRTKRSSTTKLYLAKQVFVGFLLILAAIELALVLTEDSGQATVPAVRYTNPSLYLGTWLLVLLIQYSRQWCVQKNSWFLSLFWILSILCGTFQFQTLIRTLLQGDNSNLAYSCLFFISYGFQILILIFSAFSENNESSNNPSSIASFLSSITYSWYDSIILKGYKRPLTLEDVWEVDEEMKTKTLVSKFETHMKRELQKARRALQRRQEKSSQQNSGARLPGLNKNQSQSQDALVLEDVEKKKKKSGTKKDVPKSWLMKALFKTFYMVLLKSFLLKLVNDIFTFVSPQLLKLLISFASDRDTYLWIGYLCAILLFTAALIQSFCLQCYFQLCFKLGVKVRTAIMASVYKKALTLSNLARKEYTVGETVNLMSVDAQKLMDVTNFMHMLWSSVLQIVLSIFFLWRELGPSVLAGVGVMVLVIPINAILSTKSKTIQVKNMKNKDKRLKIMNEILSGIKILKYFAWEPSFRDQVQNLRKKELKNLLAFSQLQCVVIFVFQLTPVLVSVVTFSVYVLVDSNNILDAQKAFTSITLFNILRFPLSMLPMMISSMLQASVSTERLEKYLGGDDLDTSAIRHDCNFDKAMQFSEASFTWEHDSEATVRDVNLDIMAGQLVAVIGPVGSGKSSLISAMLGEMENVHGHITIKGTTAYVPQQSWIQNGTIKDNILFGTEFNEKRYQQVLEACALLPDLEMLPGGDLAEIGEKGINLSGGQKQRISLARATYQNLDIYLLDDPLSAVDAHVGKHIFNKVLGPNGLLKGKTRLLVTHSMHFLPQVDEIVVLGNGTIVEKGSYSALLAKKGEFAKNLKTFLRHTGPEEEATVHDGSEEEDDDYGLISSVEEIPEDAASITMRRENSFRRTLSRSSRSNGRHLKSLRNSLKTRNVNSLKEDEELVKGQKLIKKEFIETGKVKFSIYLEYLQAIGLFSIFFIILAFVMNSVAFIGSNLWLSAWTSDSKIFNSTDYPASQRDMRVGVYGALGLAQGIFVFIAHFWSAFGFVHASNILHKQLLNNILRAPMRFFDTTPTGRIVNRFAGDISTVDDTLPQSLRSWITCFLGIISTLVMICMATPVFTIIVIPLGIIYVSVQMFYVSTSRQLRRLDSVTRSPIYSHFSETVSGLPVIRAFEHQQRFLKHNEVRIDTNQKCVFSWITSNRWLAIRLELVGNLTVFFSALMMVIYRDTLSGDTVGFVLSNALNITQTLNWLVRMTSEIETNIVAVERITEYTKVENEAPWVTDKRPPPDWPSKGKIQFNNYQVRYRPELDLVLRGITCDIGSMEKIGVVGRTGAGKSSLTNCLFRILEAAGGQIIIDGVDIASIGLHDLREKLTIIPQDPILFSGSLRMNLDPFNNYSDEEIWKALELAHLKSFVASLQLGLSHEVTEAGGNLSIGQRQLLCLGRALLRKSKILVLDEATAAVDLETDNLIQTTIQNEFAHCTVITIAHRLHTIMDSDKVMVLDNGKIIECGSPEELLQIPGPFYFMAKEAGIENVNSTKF

P-gp (ABCB1) [25] = biological target: T4, P-gp (ABCB1); test: Inhibition of P-gp in human Caco-2 cells at 0.1 uM in presence of paclitaxel relative to control; assay type: cell-based; conditions: Caco-2, probe paclitaxel
[26] = Metabolic stability in rat liver microsome assessed as half life; assay type: ADME; conditions: liver microsomes
P-gp (ABCB1) [27] = biological target: T4, P-gp (ABCB1); test: Inhibition of P-gp in human Caco-2 cells at 0.01 uM in presence of paclitaxel relative to control; assay type: cell-based; conditions: Caco-2, probe paclitaxel
[28] = Metabolic stability in rat liver microsome assessed as intrinsic clearance; assay type: ADME; conditions: microsomes
P-gp (ABCB1) [29] = biological target: T4, P-gp (ABCB1); test: Inhibition of P-gp in human Caco-2 cells at 10 uM in presence of paclitaxel relative to control; assay type: cell-based; conditions: Caco-2, probe paclitaxel
[30] = Cmax in Sprague-Dawley rat at 20 mg/kg, po measured upto 24 hrs by LC-MS/MS analysis; assay type: ADME, organism-based; conditions: in vivo
[31] = Tmax in Sprague-Dawley rat at 20 mg/kg, po measured upto 24 hrs by LC-MS/MS analysis; assay type: ADME, organism-based; conditions: in vivo
[32] = MRT in Sprague-Dawley rat at 20 mg/kg, po measured upto 24 hrs by LC-MS/MS analysis; assay type: ADME, organism-based; conditions: in vivo
[33] = AUC (0 to t) in Sprague-Dawley rat at 20 mg/kg, po measured upto 24 hrs by LC-MS/MS analysis; assay type: ADME, organism-based; conditions: in vivo

COc1cc(NC(=O)c2cnc3ccccc3c2)c(C(=O)Nc2ccc(C3CCN(Cc4cccc(-n5ccnc5)c4)CC3)cc2)cc1OC
recovery [1]: 72%
pIC50 (Cytochrome P450 3A4 [2]): 6.48
pIC50 (Cytochrome P450 3A4 [3]): 5.90
pEC50 [4]: 7.35
recovery [5]: 61%
Activity (MES-SA/Dx5): 1%
Papp A→B [6]: 0.55 ×10⁻⁶ cm/s
solubility [7]: Not Determined(Insoluble)
Papp B→A [8]: 0.4 ×10⁻⁶ cm/s
efflux ratio [9]: 0.7

COc1cc(NC(=O)c2cnc3ccccc3c2)c(C(=O)Nc2ccc(N3CCN(Cc4cccc(-n5ccnc5)c4)CC3)cc2)cc1OC
recovery [1]: 74%
pIC50 (Cytochrome P450 3A4 [2]): 6.57
pIC50 (Cytochrome P450 3A4 [3]): 5.72
pEC50 [4]: 7.48
recovery [5]: 69%
Activity (MES-SA/Dx5): 0%
Papp A→B [6]: 0.17 ×10⁻⁶ cm/s
solubility thermodynamic [7]: 0.092 µM (≈ 0.0614 µg/mL)
Papp B→A [8]: 0.27 ×10⁻⁶ cm/s
efflux ratio [9]: 1.6

COc1cc2c(cc1OC)CN(CCc1ccc(NC(=O)c3cc(OC)c(OC)cc3NC(=O)c3cnc4ccccc4c3)cc1)CC2
CLH [10]: 39 µL/min/mg
MRT [11]: 1.26 h
pIC50 [12]: 6.63
half-life [13]: 1.11 h
half-life [14]: 0.583 h
CLH [15]: < 23 µL/min/mg
pIC50 [16]: 7.46
CLH [17]: < 23 µL/min/mg
pIC50 [18]: 7.28
inhibition at 1 µM (P-gp (ABCB1) [19]): 92%
pIC50 [20]: < 5.00
pEC50 [4]: 7.46
inhibition at 5 µM (P-gp (ABCB1) [21]): 96%
half-life [22]: > 1 h
half-life [23]: > 1 h
pIC50 [24]: < 5.00
Activity (MES-SA/Dx5): 5%
inhibition at 0.1 µM (P-gp (ABCB1) [25]): 77%
solubility thermodynamic [7]: 0.44 µM (≈ 0.285 µg/mL)
half-life [26]: > 1 h
inhibition at 0.01 µM (P-gp (ABCB1) [27]): 0%
CLH [28]: < 23 µL/min/mg
inhibition at 10 µM (P-gp (ABCB1) [29]): 96%

COc1cc(NC(=O)c2cnc3ccccc3c2)c(C(=O)Nc2ccc(N3CCN(Cc4ccc5c(c4)OCO5)CC3)cc2)cc1OC
recovery [1]: 75%
pIC50 (Cytochrome P450 3A4 [2]): 5.68
pIC50 (Cytochrome P450 3A4 [3]): 5.26
pEC50 [4]: 7.66
recovery [5]: 75%
Activity (MES-SA/Dx5): 3%
Papp [8]: 31.7 10^-6 cm/s
Ratio [9]: 14

COc1cc(NC(=O)c2cnc3ccccc3c2)c(C(=O)Nc2ccc(N3CCN(Cc4cccc(-c5cccnc5)c4)CC3)cc2)cc1OC
recovery [1]: 60%
pIC50 (Cytochrome P450 3A4 [2]): 6.55
pIC50 (Cytochrome P450 3A4 [3]): 5.96
pEC50 [4]: 7.26
recovery [5]: 51%
Activity (MES-SA/Dx5): 0%
Papp A→B [6]: 1.29 ×10⁻⁶ cm/s
solubility [7]: Not Determined(Insoluble)
Papp B→A [8]: 2.36 ×10⁻⁶ cm/s
efflux ratio [9]: 1.8

C[C@H]1O[C@@H](O[C@H]2[C@@H](O)C[C@H](O[C@H]3[C@@H](O)C[C@H](O[C@H]4CC[C@@]5(C)[C@H](CC[C@@H]6[C@@H]5C[C@@H](O)[C@]5(C)[C@@H](C7=CC(=O)OC7)CC[C@]65O)C4)O[C@@H]3C)O[C@@H]2C)C[C@H](O)[C@@H]1O [DIGOXIN]
recovery [1]: 68%
recovery [5]: 56%
Papp A→B [6]: 0.98 ×10⁻⁶ cm/s
Papp B→A [8]: 12.1 ×10⁻⁶ cm/s
efflux ratio [9]: 12.2

CC(=O)O[C@H]1C(=O)[C@@]2(C)[C@H]([C@H](OC(=O)c3ccccc3)[C@]3(O)C[C@H](OC(=O)[C@H](O)[C@@H](NC(=O)c4ccccc4)c4ccccc4)C(C)=C1C3(C)C)[C@]1(OC(C)=O)CO[C@@H]1C[C@@H]2O [PACLITAXEL]
recovery [1]: 66%
recovery [5]: 54%
Cmax [30]: 14.9 ng/mL
Tmax [31]: 8 h
Papp A→B [6]: 0.41 ×10⁻⁶ cm/s
MRT [32]: 5.37 h
Papp B→A [8]: 17.1 ×10⁻⁶ cm/s
AUCt [33]: 95.9 ng·h/mL
